Assay results reported in patent US20150141336A1, “Pancreatic Peptide Compounds and Use” (Novo Nordisk A/S, priority 2012, published 2015).
Numbered stars: 1 amine (or outer) side, 2 acyl side, 3 side chain; on linkers, the order of the positions; unused ones are H or OH. Side chains are listed from the residue outwards. Peptide text beside a SMILES is read from it. * marks the point of attachment. C18 diacid = O=C(O)CCCCCCCCCCCCCCCCC(=O)*; γGlu = O=C(O)[C@H](CCC(=O)[*:2])N[*:1]; AEEA = NCCOCCOCC(=O)O

Test: Assay (II) PK i.v. minipig, in vivo half-life
Design: species or system Göttingen mini-pigs
Conditions: male, Göttingen, minipig, iv, Half-life minipig, Assay (II)
Method in brief: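 Male Göttingen mini-pigs (18–22 kg, n=5) received 6 nmol/kg i.v. via central catheter, formulated in 50 mM K2HPO4, 0.05% tween 80, pH 8.0. EDTA plasma sampled pre-dose to 240 h, quantified by TFC/LC/MS/MS (MRM, range 1-2000 nmol/l); half-life from non-compartmental analysis per animal.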
Work on CC[C@H](C)[C@H](NC(=O)[C@H](Cc1ccc(O)cc1)NC(=O)[C@H](CCCNC(=N)N)NC(=O)[C@H](CCCNC(=N)N)NC(=O)[C@H](CC(C)C)NC(=O)[C@H](CC(=O)O)NC(=O)[C@H](C)NC(=O)[C@H](C)NC(=O)[C@H](Cc1ccc(O)cc1)NC(=O)[C@H](CCC(N)=O)NC(=O)[C@H](C)NC(=O)[C@H](CCSC)NC(=O)[C@H](CCC(N)=O)NC(=O)[C@H](CCC(=O)O)NC(=O)[C@H](CCCCNC(=O)COCCOCCNC(=O)COCCOCCNC(=O)CC[C@H](NC(=O)CCCCCCCCCCCCCCCCC(=O)O)C(=O)O)NC(=O)[C@@H](NC(=O)[C@H](C)NC(=O)[C@H](CC(N)=O)NC(=O)[C@H](CC(=O)O)NC(=O)CNC(=O)[C@@H]1CCCN1C(=O)[C@H](Cc1ccc(O)cc1)NC(=O)[C@@H](NC(=O)[C@@H]1CCCN1C(=O)[C@H](CCC(=O)O)NC(=O)[C@@H](N)CC(C)C)C(C)C)[C@@H](C)O)C(=O)N[C@@H](CC(N)=O)C(=O)N[C@@H](CCSC)C(=O)N[C@@H](CC(C)C)C(=O)N[C@H](C(=O)N[C@@H](CCCNC(=N)N)C(=O)N1CCC[C@H]1C(=O)N[C@@H](CCCNC(=N)N)C(=O)N[C@@H](Cc1ccc(O)cc1)C(N)=O)[C@@H](C)O [Compound BB] (H-LEPVYPGDNATK([AEEA-AEEA-γGlu-C18 diacid])EQMAQYAADLRRYINMLTRPRY-NH2; N-terminus and C-terminus assumed) yielded a half-life of 1140 min. CC[C@H](C)[C@H](NC(=O)[C@H](Cc1ccc(O)cc1)NC(=O)[C@H](CCCNC(=N)N)NC(=O)[C@H](CCCNC(=N)N)NC(=O)[C@H](CC(C)C)NC(=O)[C@H](CC(=O)O)NC(=O)[C@H](C)NC(=O)[C@H](C)NC(=O)[C@H](Cc1ccc(O)cc1)NC(=O)[C@H](CCC(N)=O)NC(=O)[C@H](C)NC(=O)[C@H](CCSC)NC(=O)[C@H](CCC(N)=O)NC(=O)[C@H](CCC(=O)O)NC(=O)[C@@H]1CCCN1C(=O)[C@H](CCCCNC(=O)COCCOCCNC(=O)COCCOCCNC(=O)CC[C@H](NC(=O)CCCCCCCCCCCCCCCCC(=O)O)C(=O)O)NC(=O)[C@H](C)NC(=O)[C@H](CC(N)=O)NC(=O)[C@H](CC(=O)O)NC(=O)CNC(=O)[C@@H]1CCCN1C(=O)[C@H](Cc1ccc(O)cc1)NC(=O)[C@@H](NC(=O)[C@@H]1CCCN1C(=O)[C@H](CCC(=O)O)NC(=O)[C@@H](N)CC(C)C)C(C)C)C(=O)N[C@@H](CC(N)=O)C(=O)N[C@@H](CCSC)C(=O)N[C@@H](CC(C)C)C(=O)N[C@H](C(=O)N[C@@H](CCCNC(=N)N)C(=O)N1CCC[C@H]1C(=O)N[C@@H](CCCNC(=N)N)C(=O)N[C@@H](Cc1ccc(O)cc1)C(N)=O)[C@@H](C)O [Compound BC] (H-LEPVYPGDNAK([AEEA-AEEA-γGlu-C18 diacid])PEQMAQYAADLRRYINMLTRPRY-NH2; N-terminus and C-terminus assumed) showed a half-life of 960 min. CC[C@H](C)[C@H](NC(=O)[C@H](Cc1ccc(O)cc1)NC(=O)[C@H](CCCNC(=N)N)NC(=O)[C@H](CCCNC(=N)N)NC(=O)[C@H](CC(C)C)NC(=O)[C@H](CC(=O)O)NC(=O)[C@H](C)NC(=O)[C@H](C)NC(=O)[C@H](Cc1ccc(O)cc1)NC(=O)[C@H](CCC(N)=O)NC(=O)[C@H](C)NC(=O)[C@H](CCSC)NC(=O)[C@H](CCC(N)=O)NC(=O)[C@H](CCC(=O)O)NC(=O)[C@@H]1CCCN1C(=O)[C@@H](NC(=O)[C@H](CCCCNC(=O)COCCOCCNC(=O)COCCOCCNC(=O)CC[C@H](NC(=O)CCCCCCCCCCCCCCCCC(=O)O)C(=O)O)NC(=O)[C@H](CC(N)=O)NC(=O)[C@H](CC(=O)O)NC(=O)CNC(=O)[C@@H]1CCCN1C(=O)[C@H](Cc1ccc(O)cc1)NC(=O)[C@@H](NC(=O)[C@@H]1CCCN1C(=O)[C@H](CCC(=O)O)NC(=O)[C@@H](N)CC(C)C)C(C)C)[C@@H](C)O)C(=O)N[C@@H](CC(N)=O)C(=O)N[C@@H](CCSC)C(=O)N[C@@H](CC(C)C)C(=O)N[C@H](C(=O)N[C@@H](CCCNC(=N)N)C(=O)N1CCC[C@H]1C(=O)N[C@@H](CCCNC(=N)N)C(=O)N[C@@H](Cc1ccc(O)cc1)C(N)=O)[C@@H](C)O [Compound BD] showed a half-life of 1020 min. Molecule CC[C@H](C)[C@H](NC(=O)[C@H](Cc1ccc(O)cc1)NC(=O)[C@H](CCCNC(=N)N)NC(=O)[C@H](CCCNC(=N)N)NC(=O)[C@H](CC(C)C)NC(=O)[C@H](CC(=O)O)NC(=O)[C@H](C)NC(=O)[C@H](C)NC(=O)[C@H](Cc1ccc(O)cc1)NC(=O)[C@H](CCC(N)=O)NC(=O)[C@H](C)NC(=O)[C@H](CCSC)NC(=O)[C@H](CCC(N)=O)NC(=O)[C@H](CCC(=O)O)NC(=O)[C@@H]1CCCN1C(=O)[C@@H](NC(=O)[C@H](C)NC(=O)[C@H](CC(N)=O)NC(=O)[C@H](CCCCNC(=O)COCCOCCNC(=O)COCCOCCNC(=O)CC[C@H](NC(=O)CCCCCCCCCCCCCCCCC(=O)O)C(=O)O)NC(=O)CNC(=O)[C@@H]1CCCN1C(=O)[C@H](Cc1ccc(O)cc1)NC(=O)[C@@H](NC(=O)[C@@H]1CCCN1C(=O)[C@H](CCC(=O)O)NC(=O)[C@@H](N)CC(C)C)C(C)C)[C@@H](C)O)C(=O)N[C@@H](CC(N)=O)C(=O)N[C@@H](CCSC)C(=O)N[C@@H](CC(C)C)C(=O)N[C@H](C(=O)N[C@@H](CCCNC(=N)N)C(=O)N1CCC[C@H]1C(=O)N[C@@H](CCCNC(=N)N)C(=O)N[C@@H](Cc1ccc(O)cc1)C(N)=O)[C@@H](C)O [Compound BF] has a half-life of 1020 min. Work on CC[C@H](C)[C@H](NC(=O)[C@H](Cc1ccc(O)cc1)NC(=O)[C@H](CCCNC(=N)N)NC(=O)[C@H](CCCNC(=N)N)NC(=O)[C@H](CC(C)C)NC(=O)[C@H](CC(=O)O)NC(=O)[C@H](C)NC(=O)[C@H](C)NC(=O)[C@H](Cc1ccc(O)cc1)NC(=O)[C@H](CCC(N)=O)NC(=O)[C@H](C)NC(=O)[C@H](CCSC)NC(=O)[C@H](CCC(N)=O)NC(=O)[C@H](CCC(=O)O)NC(=O)[C@@H]1CCCN1C(=O)[C@@H](NC(=O)[C@H](C)NC(=O)[C@H](CC(N)=O)NC(=O)[C@H](CC(=O)O)NC(=O)CNC(=O)[C@H](CCCCNC(=O)COCCOCCNC(=O)COCCOCCNC(=O)CC[C@H](NC(=O)CCCCCCCCCCCCCCCCC(=O)O)C(=O)O)NC(=O)[C@H](Cc1ccc(O)cc1)NC(=O)[C@@H](NC(=O)[C@@H]1CCCN1C(=O)[C@H](CCC(=O)O)NC(=O)[C@@H](N)CC(C)C)C(C)C)[C@@H](C)O)C(=O)N[C@@H](CC(N)=O)C(=O)N[C@@H](CCSC)C(=O)N[C@@H](CC(C)C)C(=O)N[C@H](C(=O)N[C@@H](CCCNC(=N)N)C(=O)N1CCC[C@H]1C(=O)N[C@@H](CCCNC(=N)N)C(=O)N[C@@H](Cc1ccc(O)cc1)C(N)=O)[C@@H](C)O [Compound BH] yielded a half-life of 600 min. For CC[C@H](C)[C@H](NC(=O)[C@H](Cc1ccc(O)cc1)NC(=O)[C@H](CCCNC(=N)N)NC(=O)[C@H](CCCNC(=N)N)NC(=O)[C@H](CC(C)C)NC(=O)[C@H](CC(=O)O)NC(=O)[C@H](C)NC(=O)[C@H](C)NC(=O)[C@H](Cc1ccc(O)cc1)NC(=O)[C@H](CCC(N)=O)NC(=O)[C@H](C)NC(=O)[C@H](CCSC)NC(=O)[C@H](CCC(N)=O)NC(=O)[C@H](CCC(=O)O)NC(=O)[C@@H]1CCCN1C(=O)[C@@H](NC(=O)[C@H](C)NC(=O)[C@H](CC(N)=O)NC(=O)[C@H](CC(=O)O)NC(=O)CNC(=O)[C@@H]1CCCN1C(=O)[C@H](CCCCNC(=O)COCCOCCNC(=O)COCCOCCNC(=O)CC[C@H](NC(=O)CCCCCCCCCCCCCCCCC(=O)O)C(=O)O)NC(=O)[C@@H](NC(=O)[C@@H]1CCCN1C(=O)[C@H](CCC(=O)O)NC(=O)[C@@H](N)CC(C)C)C(C)C)[C@@H](C)O)C(=O)N[C@@H](CC(N)=O)C(=O)N[C@@H](CCSC)C(=O)N[C@@H](CC(C)C)C(=O)N[C@H](C(=O)N[C@@H](CCCNC(=N)N)C(=O)N1CCC[C@H]1C(=O)N[C@@H](CCCNC(=N)N)C(=O)N[C@@H](Cc1ccc(O)cc1)C(N)=O)[C@@H](C)O [Compound BI], the half-life was 540 min. Molecule CC[C@H](C)[C@H](NC(=O)[C@H](Cc1ccc(O)cc1)NC(=O)[C@H](CCCNC(=N)N)NC(=O)[C@H](CCCNC(=N)N)NC(=O)[C@H](CC(C)C)NC(=O)[C@H](CC(=O)O)NC(=O)[C@H](C)NC(=O)[C@H](C)NC(=O)[C@H](Cc1ccc(O)cc1)NC(=O)[C@H](CCC(N)=O)NC(=O)[C@H](C)NC(=O)[C@H](CCSC)NC(=O)[C@H](CCC(N)=O)NC(=O)[C@H](CCC(=O)O)NC(=O)[C@@H]1CCCN1C(=O)[C@@H](NC(=O)[C@H](C)NC(=O)[C@H](CC(N)=O)NC(=O)[C@H](CC(=O)O)NC(=O)CNC(=O)[C@@H]1CCCN1C(=O)[C@H](Cc1ccc(O)cc1)NC(=O)[C@H](CCCCNC(=O)COCCOCCNC(=O)COCCOCCNC(=O)CC[C@H](NC(=O)CCCCCCCCCCCCCCCCC(=O)O)C(=O)O)NC(=O)[C@@H]1CCCN1C(=O)[C@H](CCC(=O)O)NC(=O)[C@@H](N)CC(C)C)[C@@H](C)O)C(=O)N[C@@H](CC(N)=O)C(=O)N[C@@H](CCSC)C(=O)N[C@@H](CC(C)C)C(=O)N[C@H](C(=O)N[C@@H](CCCNC(=N)N)C(=O)N1CCC[C@H]1C(=O)N[C@@H](CCCNC(=N)N)C(=O)N[C@@H](Cc1ccc(O)cc1)C(N)=O)[C@@H](C)O [Compound BJ] has a half-life of 1740 min. For CC[C@H](C)[C@H](NC(=O)[C@H](Cc1ccc(O)cc1)NC(=O)[C@H](CCCNC(=N)N)NC(=O)[C@H](CCCNC(=N)N)NC(=O)[C@H](CC(C)C)NC(=O)[C@H](CC(=O)O)NC(=O)[C@H](C)NC(=O)[C@H](C)NC(=O)[C@H](Cc1ccc(O)cc1)NC(=O)[C@H](CCC(N)=O)NC(=O)[C@H](C)NC(=O)[C@H](CCSC)NC(=O)[C@H](CCC(N)=O)NC(=O)[C@H](CCC(=O)O)NC(=O)[C@@H]1CCCN1C(=O)[C@@H](NC(=O)[C@H](C)NC(=O)[C@H](CC(N)=O)NC(=O)[C@H](CC(=O)O)NC(=O)CNC(=O)[C@@H]1CCCN1C(=O)[C@H](Cc1ccc(O)cc1)NC(=O)[C@@H](NC(=O)[C@H](CCCCNC(=O)COCCOCCNC(=O)COCCOCCNC(=O)CC[C@H](NC(=O)CCCCCCCCCCCCCCCCC(=O)O)C(=O)O)NC(=O)[C@H](CCC(=O)O)NC(=O)[C@@H](N)CC(C)C)C(C)C)[C@@H](C)O)C(=O)N[C@@H](CC(N)=O)C(=O)N[C@@H](CCSC)C(=O)N[C@@H](CC(C)C)C(=O)N[C@H](C(=O)N[C@@H](CCCNC(=N)N)C(=O)N1CCC[C@H]1C(=O)N[C@@H](CCCNC(=N)N)C(=O)N[C@@H](Cc1ccc(O)cc1)C(N)=O)[C@@H](C)O [Compound BK], the half-life was 3240 min.
